{"source": "patent US6355799B1", "about": "“Substituted benzene compounds, process for their preparation, and herbicidal and defoliant compositions containing them” (ISK Americas Incorporated, priority 1997, dated 2002)", "format_in_all_cases": "in vivo", "key": {"[1]": {"test_system": "redroot pigweed (Amaranthus retroflexus, AMARE)", "test": "Pre-emerge test, greenhouse herbicide activity screening", "conditions": "rating scale 0-100, 14 days after application", "procedure,_shortened": "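Compounds in acetone were track-sprayed at 187 l/ha, 15–1000 g ai/ha, onto sandy loam pots. Pre-emerge seeds were sown one day before spraying, with surface watering afterwards. Post-emerge plants were at the 2–3 leaf stage and sprayed with 0.25% v/v non-ionic surfactant. Injury was rated 0–100 at 14 days.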"}, "[2]": {"test_system": "barnyardgrass (Echinochloa crus-galli, ECHCG)", "test": "Pre-emerge test, greenhouse herbicide activity screening", "conditions": "rating scale 0-100, 14 days after application", "procedure,_shortened": "(§1)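 Plants grown in 10 cm pots of sandy loam mix received acetone-dissolved compounds through a moving flat-fan nozzle. Doses ranged from 15 to 1000 g ai/ha. Pre-emerge pots were seeded one day earlier, post-emerge pots 8–21 days earlier. Fourteen days on, each pot was graded 0–100 for damage.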"}, "[3]": {"test_system": "green foxtail (Setaria viridis, SETVI)", "test": "Pre-emerge test, greenhouse herbicide activity screening", "conditions": "rating scale 0-100, 14 days after application", "procedure,_shortened": "as §1"}, "[4]": {"test_system": "ivyleaf morningglory (Ipomoea hederacea, IPOHE)", "test": "Pre-emerge test, greenhouse herbicide activity screening", "conditions": "rating scale 0-100, 14 days after application", "procedure,_shortened": "as §1"}, "[5]": {"test_system": "johnsongrass (Sorghum halepense, SORHA)", "test": "Pre-emerge test, greenhouse herbicide activity screening", "conditions": "rating scale 0-100, 14 days after application", "procedure,_shortened": "as §1"}, "[6]": {"test_system": "lambsquarters (Chenopodium album, CHEAL)", "test": "Pre-emerge test, greenhouse herbicide activity screening", "conditions": "rating scale 0-100, 14 days after application", "procedure,_shortened": "as §1"}, "[7]": {"test_system": "large crabgrass (Digitaria sanguinalis, DIGSA)", "test": "Pre-emerge test, greenhouse herbicide activity screening", "conditions": "rating scale 0-100, 14 days after application", "procedure,_shortened": "as §1"}, "[8]": {"test_system": "sicklepod (Cassia obtusifolia, CASOB)", "test": "Pre-emerge test, greenhouse herbicide activity screening", "conditions": "rating scale 0-100, 14 days after application", "procedure,_shortened": "as §1"}, "[9]": {"test_system": "velvetleaf (Abutilon theophrasti, ABUTH)", "test": "Pre-emerge test, greenhouse herbicide activity screening", "conditions": "rating scale 0-100, 14 days after application", "procedure,_shortened": "as §1"}, "[10]": {"test_system": "field corn (Zea mays L., var. Dekalb 535, CORN)", "test": "Pre-emerge test, crop safety", "conditions": "rating scale 0-100, 14 days after application", "procedure,_shortened": "(§2)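 Compounds in acetone were track-sprayed at 15-1000 g ai/ha (187 l/ha) on sandy loam pots: pre-emerge one day after seeding, post-emerge at 2-3 leaf stage with 0.25% v/v non-ionic surfactant. Phytotoxicity was rated 14 days later on a 0 (no damage) to 100 (complete death) scale.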"}, "[11]": {"test_system": "upland rice (Oryza sp., var. Tebonnet, RICE)", "test": "Pre-emerge test, crop safety", "conditions": "rating scale 0-100, 14 days after application", "procedure,_shortened": "as §2"}, "[12]": {"test_system": "barnyardgrass (Echinochloa crus-galli, ECHCG)", "test": "Post-emerge test, greenhouse herbicide activity screening", "conditions": "rating scale 0-100 (0 no damage, 100 complete death), 14 days after application", "procedure,_shortened": "(§3)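 Sandy loam pots; pre-emerge: sown 1 d pre-spray, surface-watered after, then bottom-watered. Post-emerge: sown 8–21 d before, 2–3 leaf stage, + 0.25% v/v NIS, bottom-watered. Acetone, 187 l/ha track spray, 15–1000 g ai/ha. 0–100 injury score, day 14.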"}, "[13]": {"test_system": "common ragweed (Ambrosia artemisizfolia L., AMBEL)", "test": "Post-emerge test, greenhouse herbicide activity screening", "conditions": "rating scale 0-100 (0 no damage, 100 complete death), 14 days after application", "procedure,_shortened": "as §3"}, "[14]": {"test_system": "green foxtail (Setaria viridis, SETVI)", "test": "Post-emerge test, greenhouse herbicide activity screening", "conditions": "rating scale 0-100 (0 no damage, 100 complete death), 14 days after application", "procedure,_shortened": "as §3"}, "[15]": {"test_system": "ivyleaf morningglory (Ipomoea hederacea, IPOHE)", "test": "Post-emerge test, greenhouse herbicide activity screening", "conditions": "rating scale 0-100 (0 no damage, 100 complete death), 14 days after application", "procedure,_shortened": "as §3"}, "[16]": {"test_system": "johnsongrass (Sorghum halepense, SORHA)", "test": "Post-emerge test, greenhouse herbicide activity screening", "conditions": "rating scale 0-100 (0 no damage, 100 complete death), 14 days after application", "procedure,_shortened": "as §3"}, "[17]": {"test_system": "lambsquarters (Chenopodium album, CHEAL)", "test": "Post-emerge test, greenhouse herbicide activity screening", "conditions": "rating scale 0-100 (0 no damage, 100 complete death), 14 days after application", "procedure,_shortened": "as §3"}, "[18]": {"test_system": "large crabgrass (Digitaria sanguinalis, DIGSA)", "test": "Post-emerge test, greenhouse herbicide activity screening", "conditions": "rating scale 0-100 (0 no damage, 100 complete death), 14 days after application", "procedure,_shortened": "as §3"}, "[19]": {"test_system": "redroot pigweed (Amaranthus retroflexus, AMARE)", "test": "Post-emerge test, greenhouse herbicide activity screening", "conditions": "rating scale 0-100 (0 no damage, 100 complete death), 14 days after application", "procedure,_shortened": "as §3"}, "[20]": {"test_system": "sicklepod (Cassia obtusifolia, CASOB)", "test": "Post-emerge test, greenhouse herbicide activity screening", "conditions": "rating scale 0-100 (0 no damage, 100 complete death), 14 days after application", "procedure,_shortened": "as §3"}, "[21]": {"test_system": "velvetleaf (Abutilon theophrasti, ABUTH)", "test": "Post-emerge test, greenhouse herbicide activity screening", "conditions": "rating scale 0-100 (0 no damage, 100 complete death), 14 days after application", "procedure,_shortened": "as §3"}, "[22]": {"test_system": "field corn (Zea mays L., var. Dekalb 535, CORN)", "test": "Post-emerge test, crop safety", "conditions": "rating scale 0-100 (0 no damage, 100 complete death), 14 days after application", "procedure,_shortened": "(§4)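 Each test used a mechanized track sprayer delivering 187 l/ha of acetone solution at 15–1000 g ai/ha. Post-emerge foliage at 2–3 leaves was treated with added 0.25% v/v non-ionic surfactant and bottom-watered only. Injury was assessed on day 14, where 100 means total kill.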"}, "[23]": {"test_system": "upland rice (Oryza sp., var. Tebonnet, RICE)", "test": "Post-emerge test, crop safety", "conditions": "rating scale 0-100 (0 no damage, 100 complete death), 14 days after application", "procedure,_shortened": "as §4"}}, "data": [{"smiles": "CCCCCOC(=O)C(C)(Cl)Cc1c(OC)c(Cl)cc(F)c1-n1c(=O)cc(C(F)(F)F)n(C)c1=O", "note": "(stereo not shown) [14-37]", "values": [{"measurement": "Pre-emerge herbicidal activity, phytotoxicity rating AMARE", "setting": "[1]; 63 g ai/ha", "value": 100}, {"measurement": "Pre-emerge herbicidal activity, phytotoxicity rating AMARE", "setting": "[1]; 250 g ai/ha", "value": 100}, {"measurement": "Pre-emerge herbicidal activity, phytotoxicity rating ECHCG", "setting": "[2]; 63 g ai/ha", "value": 0}, {"measurement": "Pre-emerge herbicidal activity, phytotoxicity rating ECHCG", "setting": "[2]; 250 g ai/ha", "value": 99}, {"measurement": "Pre-emerge herbicidal activity, phytotoxicity rating SETVI", "setting": "[3]; 63 g ai/ha", "value": 0}, {"measurement": "Pre-emerge herbicidal activity, phytotoxicity rating SETVI", "setting": "[3]; 250 g ai/ha", "value": 95}, {"measurement": "Pre-emerge herbicidal activity, phytotoxicity rating IPOHE", "setting": "[4]; 63 g ai/ha", "value": 0}, {"measurement": "Pre-emerge herbicidal activity, phytotoxicity rating IPOHE", "setting": "[4]; 250 g ai/ha", "value": 0}, {"measurement": "Pre-emerge herbicidal activity, phytotoxicity rating SORHA", "setting": "[5]; 63 g ai/ha", "value": 0}, {"measurement": "Pre-emerge herbicidal activity, phytotoxicity rating SORHA", "setting": "[5]; 250 g ai/ha", "value": 0}, {"measurement": "Pre-emerge herbicidal activity, phytotoxicity rating CHEAL", "setting": "[6]; 63 g ai/ha", "value": 100}, {"measurement": "Pre-emerge herbicidal activity, phytotoxicity rating CHEAL", "setting": "[6]; 250 g ai/ha", "value": 100}, {"measurement": "Pre-emerge herbicidal activity, phytotoxicity rating DIGSA", "setting": "[7]; 63 g ai/ha", "value": 0}, {"measurement": "Pre-emerge herbicidal activity, phytotoxicity rating DIGSA", "setting": "[7]; 250 g ai/ha", "value": 100}, {"measurement": "Pre-emerge herbicidal activity, phytotoxicity rating CASOB", "setting": "[8]; 63 g ai/ha", "value": 0}, {"measurement": "Pre-emerge herbicidal activity, phytotoxicity rating CASOB", "setting": "[8]; 250 g ai/ha", "value": 0}, {"measurement": "Pre-emerge herbicidal activity, phytotoxicity rating ABUTH", "setting": "[9]; 63 g ai/ha", "value": 90}, {"measurement": "Pre-emerge herbicidal activity, phytotoxicity rating ABUTH", "setting": "[9]; 250 g ai/ha", "value": 100}, {"measurement": "Pre-emerge phytotoxicity rating, crop damage CORN", "setting": "[10]; 63 g ai/ha", "value": 0}, {"measurement": "Pre-emerge phytotoxicity rating, crop damage CORN", "setting": "[10]; 250 g ai/ha", "value": 0}, {"measurement": "Pre-emerge phytotoxicity rating, crop damage RICE", "setting": "[11]; 63 g ai/ha", "value": 0}, {"measurement": "Pre-emerge phytotoxicity rating, crop damage RICE", "setting": "[11]; 250 g ai/ha", "value": 80}, {"measurement": "Post-emerge Herbicidal Activity, phytotoxicity rating ECHCG", "setting": "[12]; Rate 63 g ai/ha", "value": 100}, {"measurement": "Post-emerge Herbicidal Activity, phytotoxicity rating ECHCG", "setting": "[12]; Rate 250 g ai/ha", "value": 100}, {"measurement": "Post-emerge Herbicidal Activity, phytotoxicity rating AMBEL", "setting": "[13]; Rate 63 g ai/ha", "value": 100}, {"measurement": "Post-emerge Herbicidal Activity, phytotoxicity rating AMBEL", "setting": "[13]; Rate 250 g ai/ha", "value": 100}, {"measurement": "Post-emerge Herbicidal Activity, phytotoxicity rating SETVI", "setting": "[14]; Rate 63 g ai/ha", "value": 90}, {"measurement": "Post-emerge Herbicidal Activity, phytotoxicity rating SETVI", "setting": "[14]; Rate 250 g ai/ha", "value": 100}, {"measurement": "Post-emerge Herbicidal Activity, phytotoxicity rating IPOHE", "setting": "[15]; Rate 63 g ai/ha", "value": 30}, {"measurement": "Post-emerge Herbicidal Activity, phytotoxicity rating IPOHE", "setting": "[15]; Rate 250 g ai/ha", "value": 100}, {"measurement": "Post-emerge Herbicidal Activity, phytotoxicity rating SORHA", "setting": "[16]; Rate 63 g ai/ha", "value": 0}, {"measurement": "Post-emerge Herbicidal Activity, phytotoxicity rating SORHA", "setting": "[16]; Rate 250 g ai/ha", "value": 30}, {"measurement": "Post-emerge Herbicidal Activity, phytotoxicity rating CHEAL", "setting": "[17]; Rate 63 g ai/ha", "value": 100}, {"measurement": "Post-emerge Herbicidal Activity, phytotoxicity rating CHEAL", "setting": "[17]; Rate 250 g ai/ha", "value": 100}, {"measurement": "Post-emerge Herbicidal Activity, phytotoxicity rating DIGSA", "setting": "[18]; Rate 63 g ai/ha", "value": 80}, {"measurement": "Post-emerge Herbicidal Activity, phytotoxicity rating DIGSA", "setting": "[18]; Rate 250 g ai/ha", "value": 100}, {"measurement": "Post-emerge Herbicidal Activity, phytotoxicity rating AMARE", "setting": "[19]; Rate 63 g ai/ha", "value": 100}, {"measurement": "Post-emerge Herbicidal Activity, phytotoxicity rating AMARE", "setting": "[19]; Rate 250 g ai/ha", "value": 100}, {"measurement": "Post-emerge Herbicidal Activity, phytotoxicity rating CASOB", "setting": "[20]; Rate 63 g ai/ha", "value": 20}, {"measurement": "Post-emerge Herbicidal Activity, phytotoxicity rating CASOB", "setting": "[20]; Rate 250 g ai/ha", "value": 50}, {"measurement": "Post-emerge Herbicidal Activity, phytotoxicity rating ABUTH", "setting": "[21]; Rate 63 g ai/ha", "value": 100}, {"measurement": "Post-emerge Herbicidal Activity, phytotoxicity rating ABUTH", "setting": "[21]; Rate 250 g ai/ha", "value": 100}, {"measurement": "Post-emerge phytotoxicity rating CORN (crop damage)", "setting": "[22]; Rate 63 g ai/ha", "value": 20}, {"measurement": "Post-emerge phytotoxicity rating CORN (crop damage)", "setting": "[22]; Rate 250 g ai/ha", "value": 95}, {"measurement": "Post-emerge phytotoxicity rating RICE (crop damage)", "setting": "[23]; Rate 63 g ai/ha", "value": 70}, {"measurement": "Post-emerge phytotoxicity rating RICE (crop damage)", "setting": "[23]; Rate 250 g ai/ha", "value": 100}]}]}
